Laboratory results: patent EP0179667B1, “N6-substituted adenosines” (priority 1984, dated 1986)

Legend:
[1] = system: Swiss-Webster male mice; assay: Mouse Activity and Screen Test Procedure (MAST): locomotor activity in actophotometer; format: in vivo; details: one hour prior to testing
Method: Nine unfasted Swiss-Webster male mice weighing 20-30 g equally divided into three groups for each drug dose to be tested. That is, data for each dose level was generated by three separated groups of three mice each. A minimum of three dose levels (10, 30, and 100 mg/kg) are tested for each drug. Treatments are administered intraperitoneally one hour prior to testing. All dosages are calculated as parent compound and given in volumes of 10 ml/kg. […] Control animals are injected with Methocel. […] The actophotometer consists of a cylindrical chamber whose center is occupied by another cylinder which contains the illumination for six photocells located on the perimeter of the chamber. Six light-beam interruptions equal one count. […] Data: The data obtained from the screen test are expressed as percent of mice falling off the screen. Data derived from locomotor activity of drug treated mice are compared to the activity of vehicle treated animals and are expressed as percent inhibition of spontaneous locomotion. All percentages reported for inhibition of locomotion (LI) are based upon data accumulated for one hour. […] An overall dose rating is obtained by the following criteria: LAD refers to the lowest dose at which an A rating is achieved. […] The compounds are identified in the Examples.

[2] = target: T1, adenosine A1 receptor (Rattus norvegicus, UniProt P25099); assay: Adenosine Receptor Binding - A1 Receptor Affinity (RBA1); details: [3H]-CHA, rat whole brain membranes; read-out: RBA-1
T1 construct: Whole brain minus cerebellum and brainstem from male Long Evans rats (150-200 g) was homogenized; from tissue; host or cells: rat whole brain minus cerebellum and brainstem, membrane homogenate
T1 sequence (P25099 1-326): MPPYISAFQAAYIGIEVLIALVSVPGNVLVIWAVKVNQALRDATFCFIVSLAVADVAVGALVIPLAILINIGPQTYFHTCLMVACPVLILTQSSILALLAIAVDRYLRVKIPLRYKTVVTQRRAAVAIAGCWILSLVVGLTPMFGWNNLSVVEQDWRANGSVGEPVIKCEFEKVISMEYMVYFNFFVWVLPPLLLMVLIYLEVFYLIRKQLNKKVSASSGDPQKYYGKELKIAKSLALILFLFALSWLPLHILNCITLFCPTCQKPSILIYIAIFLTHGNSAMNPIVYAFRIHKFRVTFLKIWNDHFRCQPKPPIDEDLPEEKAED
Method: Adenosine Receptor Binding - A1 Receptor Affinity (RBA1)
Whole brain minus cerebellum and brainstem from male Long Evans rats (150-200 g) was homogenized in 30 volumes of ice-cold 0.05 M Tris-HCI buffer pH 7.7 using a Brinkman Polytron PT-10 (setting number 6 for 20 seconds) and centrifuged for ten minutes at 20,000 x g (Sorvall RC-2), 4°C. The supernatant was discarded, and the pellet was resuspended and centrifuged as before. The pellet was resuspended in 20 ml Tris-HCI buffer containing two International Units/ml of adenosine deaminase (Sigma type III from calf intestinal mucosa), incubated at 37°C for 30 minutes, then subsequently at 0°C for ten minutes. The homogenate was again centrifuged, and the final pellet was resuspended in ice-cold 0.05 M Tris-HCI buffer pH 7.7 to a concentration of 20 mg/ml original wet tissue weight and used immediately.
Tissue homogenate (10 mg/ml) was incubated in 0.05 M Tris-HCI buffer pH 7.7 containing 1.0 nM [^3H]-N^6-cyclohexyladenosine (^3H]-CHA) with or without test agents in triplicate for one hour at 25°C. Incubation volume was 2 ml. Unbound [^3H]-CHA was separated by rapid filtration under reduced pressure through Whatman glass fiber (GF/B) filters. The filters were rinsed three times with 5 ml of ice cold 0.05 M Tris-HCI buffer pH 7.7. The radio-labeled ligand retained on the filter was measured by liquid scintillation spectrophotometry after shaking the filters for one hour or longer on a mechanical shaker in 10 ml of Beckman Ready Solv HP scintillation cocktail.
Nonspecific binding was defined as the binding which occurred in the presence of 1 mM thophylline. […] The Scatchard plot was calculated by linear regression of the line obtained by plotting the amount of radioligand bound (pmoles/gram of tissue) versus [formula] Since the amount of radioligand bound was a small fraction of the total amount added, free radioligand was defined as the concentration (nM) of radioligand added to the incubation mixture. The Hill coefficient was calculated by linear regression of the line obtained by plotting the log of the bound radioligand vs the log of the [formula] The maximal number of binding sites (Bmax) was calculated from the Scatchard plot.

[3] = target: T2, adenosine A2 receptor (Rattus norvegicus, UniProt P30543); assay: Adenosine Receptor Binding - A2 Receptor Affinity (RBA2); details: [3H]NECA, rat striatal membranes; read-out: RBA-2
T2 construct: 5 mg original tissue weight of rat weight of rat striatal membranes; tissue Pel-Freez (Rogers, Arkansas); host or cells: rat striatum, membrane preparation
Method: Adenosine Receptor Binding - A2 Receptor Affinity (RBA2)
Brains from 200-500 g mixed sex Sprague-Dawley rats were purchased from Pel-Freez (Rogers, Arkansas). […] Brains were thawed and then kept on ice while the striata were dissected out. […] When needed, tissue was thawed at room temperature, disrupted in a Polytron, and kept on ice until used.
All incubations were for 60 minutes at 25°C in 12x75 mm glass tubes containing 1 ml Tris with 5 mg original tissue weight of rat weight of rat striatal membranes, 4 nM [^3H]-N-ethyl adenosine-5'-carboxamide ([^3H]NECA), 50 nM N^6-cyclopentyladenosine (to eliminate A1 receptor binding), 10 mM MgCl2, 0.1 units/ml of adenosine deaminase and 1% dimethylsulfoxide. N^6-Cyclopentyladenosine was dissolved at 10 mM in 0.02 N HCI and diluted in Tris. […] Test compounds were dissolved at 10 mM in dimethylsulfoxide on the same day as the experiment, and diluted in dimethylsulfoxide to 100x the final incubation concentration. […] [^3H]NECA was diluted to 40 nM in Tris. The membrane suspension (5 mg/0.79 ml) contained sufficient MgC12 and adenosine deaminase to give 10 mM and 0.1 units/ml, respectively, final concentration in the incubation. For test compounds with lC50 values less than 1 µM, the order of additions was test compound (10 µl), N^6-cyclopentyladenosine (100 µl), [^3H]NECA (100 µl), and membranes (0.79 ml). […] After all additions, the rack of tubes was vortexed, and the tubes were then incubated for 60 min at 25°C in a shaking water bath. The rack of tubes was vortexed an additional time halfway through the incubation.
incubations were terminated by filtration through 2.4 cm GF/B filters under reduced pressure. Each tube was filtered as follows: the contents of the tube were poured onto the filter, 4 ml of ice-cold Tris were added to the tube and the contents poured onto the filter, and the filter was washed twice with 4 ml of ice-cold Tris. The filtration was complete in about twelve seconds.
Nonspecific binding was defined as binding in the presence of 100 µM N^6-cyclopentyladenosine, and specific binding was defined as total binding minus nonspecific binding. The IC50 was calculated by weighed nonlinear least squares curve-fitting to the mass-action equation. [formula] • where Y is cpm bound • T is cpm total binding without drug • S is cpm specific binding without drug • D is the concentration of drug • and K is the IC50 of the drug Weighting factors were calculated under the assumption that the standard deviation was proportional to the predicted value of Y. Nonspecific binding was treated as a very large (infinite) concentration of drug in the computer analysis.

T2 sequence (P30543 whole entry): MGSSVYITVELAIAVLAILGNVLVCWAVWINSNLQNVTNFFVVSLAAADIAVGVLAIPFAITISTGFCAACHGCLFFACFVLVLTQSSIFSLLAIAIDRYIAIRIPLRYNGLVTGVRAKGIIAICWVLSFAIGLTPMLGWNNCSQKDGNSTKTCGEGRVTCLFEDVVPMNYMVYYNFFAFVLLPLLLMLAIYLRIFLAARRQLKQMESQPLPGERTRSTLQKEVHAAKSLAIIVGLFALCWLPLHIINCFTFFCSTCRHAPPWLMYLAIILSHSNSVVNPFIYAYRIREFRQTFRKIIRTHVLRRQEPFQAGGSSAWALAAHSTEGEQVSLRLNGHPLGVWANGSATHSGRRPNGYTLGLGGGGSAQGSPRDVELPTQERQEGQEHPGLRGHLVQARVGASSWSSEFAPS

Row | Structure (SMILES) | Inhibition of mouse locomotor activity ([1]; 1 mg/kg intraperitoneally) | Inhibition of mouse locomotor activity ([1]; 3 mg/kg intraperitoneally) | Inhibition of mouse locomotor activity ([1]; 10 mg/kg intraperitoneally) | Inhibition of mouse locomotor activity ([1]; 30 mg/kg intraperitoneally) | IC50 [2] | IC50 [3] | Inhibition of mouse locomotor activity ([1]; 0.3 mg/kg intraperitoneally) | Inhibition of mouse locomotor activity ([1]; 0.1 mg/kg intraperitoneally)
1 | CC(=O)Oc1ccccc1C(=O)OC[C@H]1O[C@@H](n2cnc3c(NC4CCCc5ccccc54)ncnc32)[C@H](O)[C@@H]1O (stereo partly drawn) [Example 14, N^6-(1-tetralinyl)-5'-O-(O-acetylsalicoyl)adenosine] | 54% | 69% | 94% | 94% | 8220 nM | 57100 nM |  | 
2 | CC(=O)OC[C@H]1O[C@@H](n2cnc3c(NC4CCCc5ccccc54)ncnc32)[C@H](O)[C@@H]1O (stereo partly drawn) [Example 15, N^6-(1-tetralinyl)-5'-acetyl-adenosine] | 87% | 96% | 98% | 99% | 500 nM | 4440 nM | 46% | 
3 | OC[C@H]1O[C@@H](n2cnc3c(NC4CCCc5c(O)cccc54)ncnc32)[C@H](O)[C@@H]1O (stereo partly drawn) [Example 16, N^6-[1-(5-hydroxy)-tetralinyl]-adenosine] |  | −13% | 23% | 89% | 36 nM | 260 nM |  | 
4 | OC[C@H]1O[C@@H](n2cnc3c(NC4CCCc5ccc(O)cc54)ncnc32)[C@H](O)[C@@H]1O (stereo partly drawn) [Example 17] |  | 44% | 88% | 91% | 71 nM | 238 nM |  | 
5 | Cc1cc(C)c2c(c1)C(Nc1ncnc3c1ncn3[C@@H]1O[C@H](CO)[C@@H](O)[C@H]1O)CCC2 (stereo partly drawn) [Example 18, N^6-[1-(5,7-dimethyl)-tetralinya]-adenosine] | 44% | 73% | 91% | 96% | 20 nM | 366 nM |  | 
6 | OC[C@H]1O[C@@H](n2cnc3c(NCC4CCc5ccccc54)ncnc32)[C@H](O)[C@@H]1O (stereo partly drawn) [Example 21, N^6-[2,3-dihydro-1H-inden-1-yl]methyladenosine] | 23% | 61% | 82% | 99% | 9 nM | 99 nM | −19% | 
7 | OC[C@H]1O[C@@H](n2cnc3c(NCC4=CCc5ccccc54)ncnc32)[C@H](O)[C@@H]1O [Example 22, N^6-[1H-inden-3-yl]methyladenosine] | 76% | 76% | 96% | 97% | 57 nM | 65.5 nM | 38% | 30%
8 | OC[C@H]1O[C@@H](n2cnc3c(NCC4(O)CCCc5ccccc54)ncnc32)[C@H](O)[C@@H]1O (stereo partly drawn) [Example 23, N^6-[1-hydroxy-1-tetralinyl]methyl adenosine] |  | 19% | 16% | 77% | 108 nM | 2850 nM |  | 
9 | OC[C@H]1O[C@@H](n2cnc3c(NCC4=CCCc5ccccc54)ncnc32)[C@H](O)[C@@H]1O [Example 24, N^6-[3,4-dihydro-1-naphthalenyl]methyladenosine] | 34% | 67% | 94% | 95% | 159 nM | 76.5 nM | 9% | 
10 | OC[C@H]1O[C@@H](n2cnc3c(NCC4(O)CCc5ccccc54)ncnc32)[C@H](O)[C@@H]1O (stereo partly drawn) [Example 25, N^6-[2,3-dihydro-1-hydroxy-1H-inden-1-yl]methyladenosine] |  | −14% | 89% | 88% | 120 nM | 987 nM |  | 
11 | OC[C@H]1O[C@@H](n2cnc3c(NCC4=CCCCc5ccccc54)ncnc32)[C@H](O)[C@@H]1O [Example 26, N^6-(1-benzocycloheptenyl)methyladenosine] |  | 50% | 31% | 64% | 713 nM | 2700 nM |  | 
